One data set deals with H1975 (lung cancer). As to the kind of experiment: MTT cytotoxicity assay, H1975. Type of data set: cell-based. The following applies: 72 h. The protocol: (§1) All prepared cobalt-polypyridyl complexes were dissolved in DMSO at a final concentration of 50 mmol/L and stored at −20° C. before use. Cytotoxicity was assessed by using the 3-(4,5-dimethylthiazol-2-yl)-2,5-diphenyltetrazolium bromide (MTT) (5.0 mg/ml) assay as previously described (Wong, V. K. et al., Cell Death Dis, 2013, 4, e720). Briefly, 4×10^3 cells per well were seeded in 96-well plates before drug treatments. After overnight culture, the cells were then exposed to different concentrations of selected compounds (0.039-100 μmol/L) for 72 h. Cells without drug treatment were used as control. Subsequently, MTT (10 μL) solution was added to each well and incubated at 37° C. for 4 h followed by the addition of 100 μL solubilization buffer (10% SDS in 0.01 mol/L HCl) and overnight incubation. A570 nm was then determined in each well on the next day. The percentage of cell viability was calculated using the following formula: Cell viability (%)=Atreated/Acontrol×100. Data were obtained from three independent experiments. Cells include HeLa cells (cervical cancer), MCF-7 (breast cancer), H1299, H1975, A549 and LLC-1 (lung cancer), HepG2 and Hep3B (liver cancer) and LO2 (normal human hepatocytes).

The test system of another data set is HepG2 (liver cancer). Briefly: MTT cytotoxicity assay, HepG2. Type of data set: cell-based. Particulars: 72 h. The protocol: as §1
Data set [1] concerns endogenous LC3-II puncta formation in HeLa cancer cells. Particulars: HeLa, 5, 10, 20 μM.
Procedure: The detection of endogenous LC3 was conducted using immunofluorescence staining method as described below. HeLa cancer cells treated with the cobalt-polypyridyl complex of Formula (IV) (with PF6^− as counterion) on cover slips were fixed with 4% paraformaldehyde (Sigma) for 20 min at room temperature and then rinsed with PBS. Coverslips were immersed in methanol at room temperature for 2 min. After washing with PBS, the cells were then incubated with anti-LC3 (1:200) in TBST (100 mM TrisHCl, pH 7.5, 150 mM NaCl, 0.05% Tween 20 and 5% BSA) overnight at 4° C. […] The coverslips were then mounted with FluorSave™ mounting media (Calbiochem, San Diego, Calif., USA) for fluorescence imaging and localization of LC3 autophagosomes were captured under the API Delta Vision Live-cell Imaging System (Applied Precision Inc., GE Healthcare Company, Washington, USA). To quantify autophagy, guidelines of autophagy quantitation were followed (Klionsky, D. J. et al., Autophagy, 2016, 12, 1-222). The percentage of cells with autophagic induction was calculated by the number of the cells with increased formation of punctate LC3 fluorescence dots (≧10 dots/cell) over the total number of immunofluorescence-positive cells in the same field. A minimum of 1000 cells from randomly selected fields were scored.
Data set [2] concerns Taxol-sensitive MCF-7 cancer cells. Briefly: MTT cytotoxicity, taxol-sensitive MCF-7. Particulars: MCF-7, MTT, 72 h. The data set is classed as cell-based. The protocol: as §1, with “experiments.” for “experiments. Cells include HeLa cells (cervical cancer), MCF-7 (breast cancer), H1299, H1975, A549 and LLC-1 (lung cancer), HepG2 and Hep3B (liver cancer) and LO2 (normal human hepatocytes).”

The next data set has as its system MCF-7 (breast cancer). As to the kind of experiment: MTT cytotoxicity assay, MCF-7. Type of data set: cell-based. Particulars: MCF-7, MTT, 72 h. As for the experimental part: as §1
(In general: Tetrazolium dyes change colour on reduction, which living cells bring about.)

Data set [3] has as its system Taxol-resistant HCT8 cancer cells. As to the kind of experiment: MTT cytotoxicity, taxol-resistant HCT8. The data set is classed as cell-based. The protocol: as §1, with “experiments.” for “experiments. Cells include HeLa cells (cervical cancer), MCF-7 (breast cancer), H1299, H1975, A549 and LLC-1 (lung cancer), HepG2 and Hep3B (liver cancer) and LO2 (normal human hepatocytes).”
(§2) All cells were obtained from the American Type Culture Collection (Rockville, Md., USA) unless otherwise specified. Immortalized wild-type and Atg7-deficient mouse embryonic fibroblasts (MEFs) were provided by Professor Masaaki Komatsu (Juntendo University, School of Medicine, Japan). Taxol-resistant types of A549, MCF-7, HCT-8 cancer cells, cisplatin-resistant SGC7901 cancer cells were purchased from KeyGEN BioTECH, China.

Data set [4] can be described thus: Body weight in mouse lung cancer xenograft model. Type of data set: in vivo. Particulars: IP 40 mg/kg/day, tumor-bearing mice. From the text:
The mice were maintained under specific pathogen-free condition in a 12-h light-dark cycle. Experimental conditions were followed in accordance to the “Institutional AnimalCare and User Committee guidelines” of the Macau University of Science and Technology. Xenograft mouse model was constructed as previously described (Wong, V. K. et al., Oncotarget, 2016, 7, 9907-9924). LLC-1 Lewis lung cancer cells (1×10^6 cells) were subcutaneously injected in the right dorsal region of the mice. After tumors grew to about 100 mm^3, the mice were randomly divided into 3 groups: 1) the control group, 2) 40 mg/kg cobalt-polypyridyl complex of Formula (IV) group, and 3) 40 mg/kg cobalt-polypyridyl complex of Formula (IV) as chloride, also referenced as (IV)-Cl (water soluble form) group. The cobalt-polypyridyl complex of Formula (IV) was dissolved in 100 μL buffer (PEG400:EtOH:ddH2O=6:1:3), whereas (IV)-Cl (water soluble form) was dissolved in ddH2O. The complexes were then intraperitoneal injected in mice every day. The body weight of each mouse was recorded with the tumor volume determined by Vernier caliper using the formula of L×W^2×0.52, where L is the longest diameter of tumor and W is the shortest diameter of tumor. Mice with tumor implants were sacrificed after 10 days when the tumor size of vehicle control group reached above 1000 mm^3 due to animal ethical issue.

Data set [5] relates to HCT116 p53^−/− colon cancer cells. Briefly: MTT cytotoxicity, HCT116 p53-/-. Type of data set: cell-based, human. As for the experimental part: as §1, with “experiments.” for “experiments. Cells include HeLa cells (cervical cancer), MCF-7 (breast cancer), H1299, H1975, A549 and LLC-1 (lung cancer), HepG2 and Hep3B (liver cancer) and LO2 (normal human hepatocytes).”
(§3) Cisplatin-sensitive or -resistant A2780, OV2008 and C13 cancer cells were provided by Prof. Benjamin Tsang (Department of Obstetrics and Gynecology and Department of Cellular and Molecular Medicine, University of Ottawa, Canada). HCT116 p53^+/+ and p53^−/− isogenic human colon cancer cells were provided by Professor Bert Vogelstein (Ludwig Center at Johns Hopkins, Howard Hughes Medical Institute, USA). All media were supplemented with 10% fetal bovine serum and the antibiotics penicillin (50 U/ml) and streptomycin (50 μg/ml; Invitrogen, Paisley, Scotland, UK). All cell cultures were incubated at 37° C. in a 5% humidified CO2 incubator.

The subject of data set [6] is Taxol-resistant A549 cancer cells. Briefly: MTT cytotoxicity, taxol-resistant A549. The data set is classed as cell-based. The protocol:
as §1, with “experiments.” for “experiments. Cells include HeLa cells (cervical cancer), MCF-7 (breast cancer), H1299, H1975, A549 and LLC-1 (lung cancer), HepG2 and Hep3B (liver cancer) and LO2 (normal human hepatocytes).”
as §2

Data set [7] concerns cisplatin-resistant A2780 ovarian cancer cells. Briefly: MTT cytotoxicity, cisplatin-resistant A2780. Type of data set: cell-based. The protocol:
as §1, with “experiments.” for “experiments. Cells include HeLa cells (cervical cancer), MCF-7 (breast cancer), H1299, H1975, A549 and LLC-1 (lung cancer), HepG2 and Hep3B (liver cancer) and LO2 (normal human hepatocytes).”
as §3

The test system of data set [8] is Taxol-resistant MCF-7 cancer cells. As to the kind of experiment: MTT cytotoxicity, taxol-resistant MCF-7. The data set is classed as cell-based. The protocol:
as §1, with “experiments.” for “experiments. Cells include HeLa cells (cervical cancer), MCF-7 (breast cancer), H1299, H1975, A549 and LLC-1 (lung cancer), HepG2 and Hep3B (liver cancer) and LO2 (normal human hepatocytes).”
as §2

Data set [9] relates to human H1299 lung cancer cells. The following applies: H1299, sub-lethal doses 0.2, 0.5, 1.0 μM. As for the experimental part: The cancer cell invasion assay was performed in a Cell Invasion Chamber, a 24-well tissue culture plate with cell culture inserts that contain an […] pore size polycarbonate membrane over a thin layer of dried ECMatrix™ (CHEMICON).
To determine the inhibitory effect of cobalt-polypyridyl complexes of the present invention in cancer cell invasion, human H1299 lung cancer cells with well-known cell invasion ability were treated with the cobalt-polypyridyl complex of Formula (IV) in its sub-lethal (non-toxic) doses.

For `Cc1ccnc(-c2cc(C)ccn2)c1.Cc1ccnc(-c2cc(C)ccn2)c1.Cc1ccnc(-c2cc(C)ccn2)c1.F[P-](F)(F)(F)(F)F.F[P-](F)(F)(F)(F)F.F[P-](F)(F)(F)(F)F.[Co+3]` [complex (IV), [Co^III(4,4′-Me2-Bpy)3.](PF6)3], the half-inhibitory concentration (IC50) in the data set with H1975 (lung cancer) turned out to be 8.84 µM; in the data set on HepG2 (liver cancer), 5.44 µM; in data set [2] it was 4 µM; in the data set on MCF-7 (breast cancer), 6.03 µM; in data set [3] (HCT8, MTT, 72 h), 1.22 µM; in data set [5] (MTT, 72 h), 9.07 µM. The IC50 amounted to 2.85 µM in [6] (A549, MTT, 72 h); 10.7 µM in data set [7] (A2780, MTT, 72 h); 2.71 µM in data set [8] (MCF-7, MTT, 72 h). Also, in [1], the “endogenous LC3-II puncta formation (autophagy induction)” value is given as “induce autophagy in dose-dependent manner”. Further, the “Resistant Factor” value in [3] (HCT8, IC50 taxol-resistant over IC50 taxol-sensitive) came to 0.36; in [5] (HCT116 p53^−/− over HCT116 p53^+/+) it was 0.59; in data set [6] (A549, IC50 taxol-resistant over IC50 taxol-sensitive) it was 0.25; in data set [7] (A2780, cisplatin-resistant over cisplatin-sensitive), 0.87; in data set [8] (MCF-7, IC50 taxol-resistant over IC50 taxol-sensitive) it was 0.68. In addition, in [4], the “reduction in body weight” value is “no significant reduction in body weight”. In addition, the “cell invasion (fluorescence signal of invaded cells)” value in data set [9] is reported as “dose-dependently decrease the cell fluorescence signal”.

One may read the IC50 as the concentration at which inhibition is half-maximal. Lower therefore signals inhibition by little substance.

These data come from patent US9895338B1, “Cobalt-polypyridyl complex for treatment of cancer, a pharmaceutical composition and a kit comprising it” (Macau University of Science and Technology, priority 2016, dated 2018).
